Data set [1] concerns BBB permeability. Kind of data set: Example 2: mifepristone pellet in rats, brain haloperidol and clozapine levels and brain dopamine metabolites. Type of data set: in vivo. As for the experimental part:
Rats (male Sprague Dawley 175-200 grams) are maintained, 3 rats per cage, under controlled temperature and lighting (12 hours light/12 hours dark) with food and water ad libitum. […] Two hours prior to sacrifice the animals are injected with either haloperidol (1 mg/kg s.c; RBI Natick, Mass.) or an equivalent volume of vehicle (0.3% tartaric acid, pH 5.3) or with either clozapine (15 mg/kg s.c.; RBI, Natick, Mass.) or vehicle (0.9% saline plus 0.8% acetic acid). Animal sacrifice is by decapitation during the first four hours of the light cycle. Blood is collected and brains removed and frozen on dry ice for storage at −80° C. Frozen brains are sliced into 250 μm sections with a cryostat. The medial prefrontal cortex (AP 13.7 to 12.2 mm) is dissected with a scalpel, the striatum (AP 10.7 to 9.7 mm) is removed with stainless steel cannulae from frozen slices and the core and shell of the nucleus accumbens (AP 10.7 to 9.7 mm) is removed. Brain regions are dissected within 24-72 hours of slicing. […] Dopamine metabolites homovanillic acid (HVA) and dihydroxyphenylacetic acid (DOPAC) are measured in the brains of the experimental animals. […] Tissue pellets are dissolved in 1.0 N NaOH for protein determination (BioRad, Richmond, Calif.). Cortical supernatants are filtered through a 0.45 μm filter and 5-80 μl of supernatant is injected directly onto a C18 reverse phase analytical column (5 μm, 250×4.6 mm; Biophase ODS, BAS, West Lafayette, Ind.) protected by a precolumn cartridge (5 μm, 30×4.6 mm, BAS) as described with modification (Lindley et al. Proc. Soc. Exp. Biol. Med. 188:282-286 (1988)). DOPAC and HVA were detected using an electrochemical detector. For cortical regions, the conditioning electrode is set at +0.35 V and the dual analytical electrode is set at +0.02 V and −0.35 V, respectively (ESA, Bedford, Mass.). For other regions a single analytical electrode set at +0.72 V is used (BAS, West Lafayette, Ind.). Brain clozapine levels are analyzed by National Medical Services, Inc. (Willow Grove, PN) while brain and plasma haloperidol and reduced haloperidol and plasma clozapine levels are analyzed by Analytical Psychopharmacology Laboratories (Nathan Kline Institute, Orangeburg, N.Y.), both by gas chromatography.

Data set [2] relates to BBB permeability. Particulars: adrenalectomized rats with vehicle (placebo) pellets; haloperidol 1 mg/kg s.c. or clozapine 15 mg/kg s.c., 2 h before sacrifice.
For data set [3], the system named is BBB permeability. Kind of data set: Example 4: mifepristone pellet in rats, delivery of ampicillin to brain. In kind it is in vivo. Particulars: mifepristone 200 mg 10-day sustained release pellet, ampicillin 1.5 mg i.v. 2 h before sacrifice. As for the experimental part: Animal sacrifice is by decapitation during the first four hours of the light cycle. Blood is collected and brains removed and frozen on dry ice for storage at −80° C. Ampicillin concentration is measured in the brains of the experimental animals.

The subject of data set [4] is BBB permeability. The data set is described as follows: Example 5: mifepristone pellet in rats, delivery of methotrexate to brain. In kind it is in vivo. Particulars: mifepristone 200 mg 10 day sustained-release pellet, methotrexate 0.5 mg i.v. 2 h before sacrifice. As for the experimental part: Rats (male Sprague Dawley 175-200 grams) are maintained, 3 rats per cage, under controlled temperature and lighting (12 hours light/12 hours dark) with food and water ad libitum. […] Two hours prior to sacrifice the animals are injected with either methotrexate (0.5 mg i.v; Sigma Chemical Co., (800)325-3010) or an equivalent volume of vehicle (saline, pH 9). Animal sacrifice is by decapitation during the first four hours of the light cycle. Blood is collected and brains removed and frozen on dry ice for storage at −80° C. Methotrexate concentration is measured in the brains of the experimental animals. The methotrexate concentration is greater in the brains of mifepristone-treated animals than in placebo-treated animals.

For data set [5], the system named is BBB permeability. Kind of data set: Example 6: mifepristone s.c. injection in rats, delivery of adriamycin to brain. Type of data set: in vivo. Particulars: mifepristone 2 mg s.c. 4 h before sacrifice, adriamycin 0.5 mg i.v. 2 h before sacrifice. As for the experimental part: Animal sacrifice is by decapitation during the first four hours of the light cycle. Blood is collected and brains removed and frozen on dry ice for storage at −80° C. Adriamycin concentration is measured in the brains of the experimental animals.

In data set [6] the test system is BBB permeability. The data set is described as follows: Example 3: mifepristone pellet in rats, delivery of Amphotericin B to brain. Particulars: mifepristone 200 mg 10-day sustained release pellet, Amphotericin B 0.1 mg i.v. 2 h before sacrifice. In kind it is in vivo. As for the experimental part: Rats (male Sprague Dawley 175-200 grams) are maintained, 3 rats per cage, under controlled temperature and lighting (12 hours light/12 hours dark) with food and water ad libitum. […] Two hours prior to sacrifice the animals are injected with either Amphotericin B (0.1 mg i.v.; Sigma Chemical Co., (800) 325-3010) or an equivalent volume of vehicle (0.1% DMSO in saline, pH 11). Animal sacrifice is by decapitation during the first four hours of the light cycle. Blood is collected and brains removed and frozen on dry ice for storage at −80° C. Amphotericin B concentration is measured in the brains of the experimental animals. The Amphotericin B concentration is greater in the brains of mifepristone-treated animals than in placebo-treated animals.

[7] abbreviates: rats, mifepristone 200 mg 10-day sustained-release pellet, clozapine 15 mg/kg s.c.
Where [8] appears, read: rats, mifepristone 200 mg 10-day sustained-release pellet, haloperidol 1 mg/kg s.c.

Read-outs that look alike come from different tables or passages of the source.

Regarding `O=C(CCCN1CCC(O)(c2ccc(Cl)cc2)CC1)c1ccc(F)cc1` [haloperidol], the “measured levels of HVA and DOPAC in the brain” value with BBB permeability [1] (rats with placebo pellet, haloperidol 1 mg/kg s.c. or clozapine 15 mg/kg s.c., 2 h before sacrifice) is recorded as “elevated”; with BBB permeability [2], “elevated”.

Turning to `CC#C[C@]1(O)CC[C@H]2[C@@H]3CCC4=CC(=O)CCC4=C3[C@@H](c3ccc(N(C)C)cc3)C[C@@]21C` [mifepristone, (11β,17β)-11-[4-(dimethylamino)phenyl]-17-hydroxy-17-(1-propynyl)estra-4,9-dien-3-one], the “ampicillin concentration in the brain, mifepristone-treated vs placebo” value in the data set on BBB permeability [3] is on record as “greater”. In addition, in the data set on BBB permeability [4], the “methotrexate concentration in the brain, mifepristone-treated vs placebo” value was “greater”. For the same compound, in the data set with BBB permeability [5], the “adriamycin concentration in the brain, mifepristone-treated vs placebo” value was “greater”. Further, the “Amphotericin B concentration in the brain, mifepristone-treated vs placebo” value in the data set on BBB permeability [6] was “greater”. In the data set with BBB permeability [1] (setting [7]), the “brain concentration of clozapine, mifepristone-treated vs placebo” value was “greater” and the “increase in dopamine metabolite levels following clozapine treatment, mifepristone-treated vs placebo” value was “greater”. Moreover, in the data set on BBB permeability [1] (setting [8]), the “brain concentration of haloperidol, mifepristone-treated vs placebo” value is listed as “greater” and the “increase in dopamine metabolite levels following haloperidol treatment, mifepristone-treated vs placebo” value is “greater”.

(Values after patent US20020065259A1, “Glucocorticoid blocking agents for increasing blood-brain barrier permeability” (priority 2000, published 2002).)
